Measured values taken from ChEMBL document CHEMBL1155164, “Sequencing and comparative genomic analysis of pK29, a 269-kilobase conjugative plasmid encoding CMY-8 and CTX-M-3 beta-lactamases in Klebsiella pneumoniae” (2007).
Values after ≈ are worked out from the molar mass of the structure shown.

Columns and labels:
Format in all cases: functional
Klebsiella pneumoniae [1] = assay: Antibacterial activity against Klebsiella pneumoniae NK29 by Etest
Escherichia coli [2] = assay: Antibacterial activity against plasmid pK29 transconjugant Escherichia coli J53 by Etest
Escherichia coli [3] = assay: Antibacterial activity against Escherichia coli J53 by Etest
Escherichia coli [4] = assay: Antibacterial activity against plasmid pK29 transconjugant Escherichia coli J53 assessed as inhibition zone diameter by CLSI disk diffusion confirmatory test
Klebsiella pneumoniae [5] = assay: Antibacterial activity against Klebsiella pneumoniae NK29 assessed as inhibition zone diameter by CLSI disk diffusion confirmatory test
Escherichia coli [6] = assay: Antibacterial activity against Escherichia coli J53 assessed as inhibition zone diameter by CLSI disk diffusion confirmatory test
Klebsiella pneumoniae [7] = assay: Antibacterial activity against Klebsiella pneumoniae NK29 by broth microdilution test
Escherichia coli [8] = assay: Antibacterial activity against plasmid pK29 transconjugant Escherichia coli J53 by broth microdilution test
Escherichia coli [9] = assay: Antibacterial activity against Escherichia coli J53 by broth microdilution test

Row | Structure (SMILES) | MIC (Klebsiella pneumoniae [1]) [mg/L] | MIC (Escherichia coli [2]) [mg/L] | MIC (Escherichia coli [3]) [mg/L] | inhibition zone (IZ) (Escherichia coli [4]) [mm] | inhibition zone (IZ) (Klebsiella pneumoniae [5]) [mm] | inhibition zone (IZ) (Escherichia coli [6]) [mm] | MIC (Klebsiella pneumoniae [7]) [mg/L] | MIC (Escherichia coli [8]) [mg/L] | MIC (Escherichia coli [9]) [mg/L]
1 | C[C@H]1[C@H](NC(=O)/C(=N\OC(C)(C)C(=O)O)c2csc(N)n2)C(=O)N1S(=O)(=O)O [AZTREONAM] | 4 (≈ 9.19 µM) | 2 (≈ 4.59 µM) |  |  |  |  |  |  | 
2 | CO/N=C(\C(=O)N[C@@H]1C(=O)N2C(C(=O)[O-])=C(C[N+]3(C)CCCC3)CS[C@H]12)c1csc(N)n1 [CEFEPIME] | 2 (≈ 4.16 µM) | 1 (≈ 2.08 µM) | 0.094 (≈ 0.196 µM) |  |  |  |  |  | 
3 | CO/N=C(\C(=O)N[C@@H]1C(=O)N2C(C(=O)O)=C(COC(C)=O)CS[C@H]12)c1csc(N)n1 [CEFOTAXIME] | 32 (≈ 70.3 µM) | 24 (≈ 52.7 µM) | 0.064 (≈ 0.141 µM) | 16 | 13 | 31 |  |  | 
4 | CO[C@@]1(NC(=O)Cc2cccs2)C(=O)N2C(C(=O)O)=C(COC(N)=O)CS[C@@H]21 [CEFOXITIN] | > 256 | > 256 | 4 (≈ 9.36 µM) |  |  |  |  |  | 
5 | CC(C)(O/N=C(\C(=O)N[C@@H]1C(=O)N2C(C(=O)[O-])=C(C[n+]3ccccc3)CS[C@H]12)c1csc(N)n1)C(=O)O [CEFTAZIDIME] | 16 (≈ 29.3 µM) | 1.5 (≈ 2.74 µM) | 0.19 (≈ 0.348 µM) | 27 | 17 | 33 |  |  | 
6 | CO/N=C(\C(=O)N[C@@H]1C(=O)N2C(C(=O)O)=C(CSc3nc(=O)c(O)nn3C)CS[C@H]12)c1csc(N)n1 [CEFTRIAXONE] | 24 (≈ 43.3 µM) | 16 (≈ 28.9 µM) | 0.19 (≈ 0.343 µM) |  |  |  |  |  | 
7 | O=C(N[C@H](CO)[C@H](O)c1ccc([N+](=O)[O-])cc1)C(Cl)Cl [CHLORAMPHENICOL] | 96 (≈ 297 µM) | 96 (≈ 297 µM) | 4 (≈ 12.4 µM) |  |  |  |  |  | 
8 | O=C(O)c1cn(C2CC2)c2cc(N3CCNCC3)c(F)cc2c1=O [CIPROFLOXACIN] | 0.047 (≈ 0.142 µM) |  |  |  |  |  |  |  | 
9 | C[C@@H](O)[C@H]1C(=O)N2C(C(=O)O)=C(SCCNC=N)C[C@H]12 [IMIPENEM ANHYDROUS] | 0.25 (≈ 0.835 µM) | 0.25 (≈ 0.835 µM) |  |  |  |  |  |  | 
10 | NC[C@H]1O[C@H](O[C@H]2[C@H](O)[C@@H](O[C@H]3O[C@H](CO)[C@@H](O)[C@H](N)[C@H]3O)[C@H](N)C[C@@H]2N)[C@H](O)[C@@H](O)[C@@H]1O [KANAMYCIN] |  |  |  |  |  |  | 32 (≈ 66 µM) | 32 (≈ 66 µM) | 8 (≈ 16.5 µM)
11 | Cc1cc(NS(=O)(=O)c2ccc(N)cc2)no1 [SULFAMETHOXAZOLE] |  |  |  |  |  |  | > 512 | > 512 | ≤ 64
12 | CN(C)[C@@H]1C(O)=C(C(N)=O)C(=O)[C@@]2(O)C(O)=C3C(=O)c4c(O)cccc4[C@@](C)(O)[C@H]3C[C@@H]12 [TETRACYCLINE] | 8 (≈ 18 µM) | 2 (≈ 4.5 µM) | 2 (≈ 4.5 µM) |  |  |  |  |  | 
